# In PubChem BioAssay (NCI):
#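 Five compound concentrations were applied to cells in 96-well plates for 48 hours; endpoints were derived by simple linear interpolation of the resulting dose-response curve. The concentration for 50% growth inhibition is given as GI50. TGI marks complete inhibition of growth.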
# Columns and labels:
# Experiment in all cases: DTP human tumour cell line panel, 48 h
# T-47D breast = test system: T-47D breast
# NCI/ADR-RES ovarian = test system: NCI/ADR-RES ovarian
# OVCAR-5 ovarian = test system: OVCAR-5 ovarian
# UO-31 renal = test system: UO-31 renal
# SF-268 CNS = test system: SF-268 CNS
# MCF7 breast = test system: MCF7 breast
# RXF 393 renal = test system: RXF 393 renal
# MDA-MB-435 = test system: MDA-MB-435
# SW-620 colon = test system: SW-620 colon
# SF-539 CNS = test system: SF-539 CNS
# SF-295 CNS = test system: SF-295 CNS
# K-562 leukemia = test system: K-562 leukemia
# SR leukemia = test system: SR leukemia
# A498 renal = test system: A498 renal
# OVCAR-8 ovarian = test system: OVCAR-8 ovarian
# HOP-62 NSCLC = test system: HOP-62 NSCLC
# MOLT-4 leukemia = test system: MOLT-4 leukemia
# SK-MEL-28 melanoma = test system: SK-MEL-28 melanoma
# A549 NSCLC = test system: A549 NSCLC
# OVCAR-3 ovarian = test system: OVCAR-3 ovarian
# SK-OV-3 ovarian = test system: SK-OV-3 ovarian
# CCRF-CEM leukemia = test system: CCRF-CEM leukemia
# U251 CNS = test system: U251 CNS
# 786-0 renal = test system: 786-0 renal
# SK-MEL-5 melanoma = test system: SK-MEL-5 melanoma
# ACHN renal = test system: ACHN renal
# HOP-92 NSCLC = test system: HOP-92 NSCLC
# MDA-MB-231 breast = test system: MDA-MB-231 breast
# MALME-3M melanoma = test system: MALME-3M melanoma
smiles,measurement,setting,value
O=C(O)COc1ccc2c(=O)c3sc4c(=O)c5ccccc5c(=O)c4c3c(=O)c2c1,TGI,T-47D breast,50.9 µM
same,GI50,NCI/ADR-RES ovarian,29.9 µM
same,TGI,NCI/ADR-RES ovarian,> 100 µM
same,GI50,OVCAR-5 ovarian,17.7 µM
same,TGI,OVCAR-5 ovarian,34.3 µM
same,GI50,UO-31 renal,11.8 µM
same,TGI,UO-31 renal,30.1 µM
same,GI50,SF-268 CNS,14.8 µM
same,TGI,SF-268 CNS,48.9 µM
same,GI50,MCF7 breast,5.51 µM
same,TGI,MCF7 breast,25.8 µM
same,GI50,RXF 393 renal,12.6 µM
same,TGI,RXF 393 renal,28.1 µM
same,GI50,MDA-MB-435,1.78 µM
same,TGI,MDA-MB-435,3.35 µM
same,GI50,SW-620 colon,11.4 µM
same,TGI,SW-620 colon,28.6 µM
same,GI50,SF-539 CNS,13.2 µM
same,TGI,SF-539 CNS,26.1 µM
same,GI50,SF-295 CNS,6.72 µM
same,TGI,SF-295 CNS,20.6 µM
same,GI50,K-562 leukemia,25.6 µM
same,TGI,K-562 leukemia,95.1 µM
same,GI50,SR leukemia,32.8 µM
same,TGI,SR leukemia,> 100 µM
same,GI50,A498 renal,14.7 µM
same,TGI,A498 renal,28.1 µM
same,GI50,OVCAR-8 ovarian,24.8 µM
same,TGI,OVCAR-8 ovarian,73.6 µM
same,GI50,HOP-62 NSCLC,8.03 µM
same,TGI,HOP-62 NSCLC,22.4 µM
same,GI50,MOLT-4 leukemia,21.5 µM
same,TGI,MOLT-4 leukemia,52.6 µM
same,GI50,SK-MEL-28 melanoma,8.19 µM
same,TGI,SK-MEL-28 melanoma,28.6 µM
same,GI50,A549 NSCLC,11.2 µM
same,TGI,A549 NSCLC,26.5 µM
same,GI50,OVCAR-3 ovarian,13.5 µM
same,TGI,OVCAR-3 ovarian,33.9 µM
same,GI50,SK-OV-3 ovarian,16.6 µM
same,TGI,SK-OV-3 ovarian,43.9 µM
same,GI50,CCRF-CEM leukemia,23.6 µM
same,TGI,CCRF-CEM leukemia,62.9 µM
same,GI50,U251 CNS,13.7 µM
same,TGI,U251 CNS,32.8 µM
same,GI50,786-0 renal,21.8 µM
same,TGI,786-0 renal,76.1 µM
same,GI50,SK-MEL-5 melanoma,1.75 µM
same,TGI,SK-MEL-5 melanoma,3.35 µM
same,GI50,ACHN renal,23 µM
same,TGI,ACHN renal,> 100 µM
same,GI50,HOP-92 NSCLC,18.9 µM
same,TGI,HOP-92 NSCLC,43.2 µM
same,GI50,MDA-MB-231 breast,17.8 µM
same,TGI,MDA-MB-231 breast,71.7 µM
same,GI50,MALME-3M melanoma,2.12 µM
same,TGI,MALME-3M melanoma,4.59 µM
